Literature values in US11839619B2, “Methods for treatment of pediatric systemic mastocytosis” (The Regents of the University of California, priority 2019, dated 2023).

Details: in vivo

Structure (SMILES): CO[C@@H]1[C@H](N(C)C(=O)c2ccccc2)C[C@H]2O[C@]1(C)n1c3ccccc3c3c4c(c5c6ccccc6n2c5c31)C(=O)NC4 [midostaurin]
- common side effects: nausea, vomiting, diarrhea, and thrombocytopenia
